Values joined by “and” are separate entries in the source; they are usually repeats but may differ in a detail not shown here. Equal entries are not always repeated. One block for each compound: values may come before it.
Legend:
Assay in all cases: In-cell proteome-wide competitive ABPP, HEK293: other DUBs and proteins
[1] = molecular target: T1, DUBs and other proteins in HEK293 cells (Homo sapiens, UniProt Q53GS9); details: replicates A-C; for Log2 reporter intensity values: USP39: DMSO substract (FC); for Log2 reporter intensity values: USP39, DMSO subtracted
T1 sequence (Q53GS9 1-565): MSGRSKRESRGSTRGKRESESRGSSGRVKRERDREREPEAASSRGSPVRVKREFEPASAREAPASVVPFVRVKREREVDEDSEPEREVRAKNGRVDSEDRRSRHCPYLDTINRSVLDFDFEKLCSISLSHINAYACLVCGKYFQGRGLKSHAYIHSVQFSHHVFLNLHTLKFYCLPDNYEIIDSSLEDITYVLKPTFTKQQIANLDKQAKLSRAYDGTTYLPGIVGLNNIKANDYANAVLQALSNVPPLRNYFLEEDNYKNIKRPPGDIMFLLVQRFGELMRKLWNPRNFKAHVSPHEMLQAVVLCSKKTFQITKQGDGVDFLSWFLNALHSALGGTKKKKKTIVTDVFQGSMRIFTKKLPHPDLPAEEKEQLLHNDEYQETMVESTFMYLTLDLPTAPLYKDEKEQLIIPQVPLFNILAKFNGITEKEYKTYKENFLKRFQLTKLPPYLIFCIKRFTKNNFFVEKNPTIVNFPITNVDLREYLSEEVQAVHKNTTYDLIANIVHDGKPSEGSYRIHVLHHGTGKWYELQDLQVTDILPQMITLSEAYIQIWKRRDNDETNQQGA

[2] = molecular target: T2, DUBs and other proteins in HEK293 cells (Homo sapiens, UniProt Q96K76); details: replicates A-C; for Log2 reporter intensity values: USP47: DMSO substract (FC); for Log2 reporter intensity values: USP47, DMSO subtracted
T2 sequence (Q96K76 1-1375): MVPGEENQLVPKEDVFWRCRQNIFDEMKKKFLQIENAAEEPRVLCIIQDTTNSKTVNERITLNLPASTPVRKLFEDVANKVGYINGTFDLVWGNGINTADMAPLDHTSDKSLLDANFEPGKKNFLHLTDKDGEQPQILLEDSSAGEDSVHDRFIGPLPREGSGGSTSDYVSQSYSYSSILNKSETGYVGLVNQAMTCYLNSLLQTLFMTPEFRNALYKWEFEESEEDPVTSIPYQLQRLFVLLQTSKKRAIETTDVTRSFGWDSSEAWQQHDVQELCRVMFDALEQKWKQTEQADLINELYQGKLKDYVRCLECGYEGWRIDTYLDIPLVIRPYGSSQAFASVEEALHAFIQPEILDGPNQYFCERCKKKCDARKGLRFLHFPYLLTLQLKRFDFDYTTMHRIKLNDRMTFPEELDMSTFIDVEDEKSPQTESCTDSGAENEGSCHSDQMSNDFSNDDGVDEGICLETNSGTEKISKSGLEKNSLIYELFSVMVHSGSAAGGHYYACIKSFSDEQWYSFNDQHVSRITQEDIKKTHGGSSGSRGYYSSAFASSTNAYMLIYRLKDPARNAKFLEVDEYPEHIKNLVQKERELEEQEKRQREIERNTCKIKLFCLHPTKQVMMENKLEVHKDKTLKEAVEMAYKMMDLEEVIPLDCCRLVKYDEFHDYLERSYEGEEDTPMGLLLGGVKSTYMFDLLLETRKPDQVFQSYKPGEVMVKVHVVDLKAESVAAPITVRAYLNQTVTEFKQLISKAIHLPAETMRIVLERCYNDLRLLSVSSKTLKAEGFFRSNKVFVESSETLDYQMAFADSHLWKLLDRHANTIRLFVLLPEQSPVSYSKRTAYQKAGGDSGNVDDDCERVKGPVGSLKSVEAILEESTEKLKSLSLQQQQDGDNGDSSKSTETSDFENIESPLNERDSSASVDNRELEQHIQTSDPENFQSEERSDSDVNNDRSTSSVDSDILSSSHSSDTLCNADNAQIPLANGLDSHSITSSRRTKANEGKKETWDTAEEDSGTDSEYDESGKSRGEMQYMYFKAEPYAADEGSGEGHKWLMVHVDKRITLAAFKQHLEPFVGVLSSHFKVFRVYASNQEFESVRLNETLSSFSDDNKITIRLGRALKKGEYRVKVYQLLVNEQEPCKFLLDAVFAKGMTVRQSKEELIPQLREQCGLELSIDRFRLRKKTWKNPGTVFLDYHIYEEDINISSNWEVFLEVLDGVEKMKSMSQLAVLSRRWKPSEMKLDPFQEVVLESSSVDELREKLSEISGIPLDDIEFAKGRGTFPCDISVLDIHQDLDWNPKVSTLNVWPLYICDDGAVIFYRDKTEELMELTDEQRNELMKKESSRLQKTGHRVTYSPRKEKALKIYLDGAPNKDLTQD

[3] = molecular target: T3, DUBs and other proteins in HEK293 cells (Homo sapiens, UniProt Q9Y5K5); details: replicates A-C; for Log2 reporter intensity values: UCHL5: competition with ABP 2, DMSO substract (FC); for Log2 reporter intensity values: UCHL5, DMSO subtracted
T3 sequence (Q9Y5K5 1-329): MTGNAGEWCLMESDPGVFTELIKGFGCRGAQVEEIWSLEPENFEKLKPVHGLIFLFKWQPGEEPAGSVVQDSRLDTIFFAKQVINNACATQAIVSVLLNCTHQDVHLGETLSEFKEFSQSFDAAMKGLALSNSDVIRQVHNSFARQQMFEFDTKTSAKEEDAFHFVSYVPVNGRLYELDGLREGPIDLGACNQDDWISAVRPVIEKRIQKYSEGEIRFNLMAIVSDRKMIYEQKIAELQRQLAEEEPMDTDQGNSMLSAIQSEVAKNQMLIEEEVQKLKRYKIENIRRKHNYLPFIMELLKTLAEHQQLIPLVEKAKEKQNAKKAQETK

[4] = molecular target: DUBs and other proteins in HEK293 cells (Homo sapiens, UniProt Q9Y5T5); details: replicates A-C; for Log2 reporter intensity values: USP16: competition with ABP 2, DMSO substract (FC); for Log2 reporter intensity values: USP16, DMSO subtracted
DUBs and other proteins in HEK293 cells (Homo sapiens, UniProt Q9Y5T5), sequence (Q9Y5T5 whole entry): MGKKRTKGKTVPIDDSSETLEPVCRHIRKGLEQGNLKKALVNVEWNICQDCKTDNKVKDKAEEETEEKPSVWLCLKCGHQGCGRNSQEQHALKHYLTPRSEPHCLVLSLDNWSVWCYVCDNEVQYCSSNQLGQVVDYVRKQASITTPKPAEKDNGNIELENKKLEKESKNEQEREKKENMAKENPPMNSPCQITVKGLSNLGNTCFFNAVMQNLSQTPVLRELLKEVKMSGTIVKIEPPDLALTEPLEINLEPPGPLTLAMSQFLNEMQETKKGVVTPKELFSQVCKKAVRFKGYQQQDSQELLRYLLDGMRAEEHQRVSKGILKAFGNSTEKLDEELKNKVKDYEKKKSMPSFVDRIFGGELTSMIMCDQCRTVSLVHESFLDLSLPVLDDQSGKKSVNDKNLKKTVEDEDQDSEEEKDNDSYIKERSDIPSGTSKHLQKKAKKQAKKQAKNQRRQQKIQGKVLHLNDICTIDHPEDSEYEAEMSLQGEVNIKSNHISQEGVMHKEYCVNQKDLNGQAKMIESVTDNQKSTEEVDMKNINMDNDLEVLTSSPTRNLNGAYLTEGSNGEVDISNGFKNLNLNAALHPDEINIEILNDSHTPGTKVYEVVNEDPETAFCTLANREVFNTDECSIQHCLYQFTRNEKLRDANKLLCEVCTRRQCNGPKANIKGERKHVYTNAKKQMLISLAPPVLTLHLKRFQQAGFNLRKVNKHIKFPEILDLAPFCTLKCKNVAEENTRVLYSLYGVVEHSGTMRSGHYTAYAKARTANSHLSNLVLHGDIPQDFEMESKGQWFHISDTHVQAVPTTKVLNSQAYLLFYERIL

[5] = LDN at 5 μM, competition with ABP 2
[6] = LDN at 25 μM, competition with ABP 2
[7] = 3 at 1 μM, competition with ABP 2
[8] = 3 at 4 μM, competition with ABP 2

Compound: CC(=O)O/N=C1\C(=O)N(Cc2cc(Cl)ccc2Cl)c2ccc(Cl)cc21 [LDN]
- Log2 reporter intensity values: USP39 [1, 5]: 1.029 and 1.043 and 0.9785
- Log2 reporter intensity values: USP39 [1, 6]: 1.07 and 1.069 and 1.033
- Log2 reporter intensity values ([1]; LDN at 5 μM): 0.04123 and 0.06024 and -0.03137
- Log2 reporter intensity values ([1]; LDN at 25 μM): 0.09762 and 0.09571 and 0.04713
- Log2 reporter intensity values ([1]; LDN_5 μM): 0.02838 and 0.04203 and -0.02212
- Log2 reporter intensity values ([1]; LDN_25 μM): 0.0694 and 0.06798 and 0.0326
- Log2 reporter intensity values: USP47 [2, 5]: 0.9979 and 0.9926 and 1.029
- Log2 reporter intensity values: USP47 [2, 6]: 1.08 and 1.079 and 1.007
- Log2 reporter intensity values ([2]; LDN at 5 μM): -0.003055 and -0.01068 and 0.04147
- Log2 reporter intensity values ([2]; LDN at 25 μM): 0.1109 and 0.1092 and 0.01034
- Log2 reporter intensity values ([2]; LDN_5 μM): -0.002223 and -0.007484 and 0.02905
- Log2 reporter intensity values ([2]; LDN_25 μM): 0.07978 and 0.07849 and 0.007088
- Log2 reporter intensity values: UCHL5 ([3]; LDN at 5 μM): 1.097 and 1.066 and 1.089
- Log2 reporter intensity values: UCHL5 ([3]; LDN at 25 μM): 0.9397 and 0.9601 and 0.908
- Log2 reporter intensity values ([3]; LDN at 5 μM): 0.134 and 0.09247 and 0.1227
- Log2 reporter intensity values ([3]; LDN at 25 μM): -0.08966 and -0.05875 and -0.1393
- Log2 reporter intensity values ([3]; LDN_5 μM): 0.09668 and 0.06552 and 0.08811
- Log2 reporter intensity values ([3]; LDN_25 μM): -0.06093 and -0.04058 and -0.09272
- Log2 reporter intensity values: USP16 ([4]; LDN at 5 μM): 1.149 and 1.181 and 1.095
- Log2 reporter intensity values: USP16 ([4]; LDN at 25 μM): 1.216 and 1.053 and 1.129
- Log2 reporter intensity values ([4]; LDN at 5 μM): 0.2004 and 0.2395 and 0.1308
- Log2 reporter intensity values ([4]; LDN at 25 μM): 0.2823 and 0.07456 and 0.1753
- Log2 reporter intensity values ([4]; LDN_5 μM): 0.1468 and 0.1784 and 0.09274
- Log2 reporter intensity values ([4]; LDN_25 μM): 0.2139 and 0.05085 and 0.127

- Log2 reporter intensity values: USP39 [1, 7]: 0.9789 and 0.9555 and 0.9911
- Log2 reporter intensity values: USP39 [1, 8]: 0.9367 and 1.076 and 1.058
- Log2 reporter intensity values ([1]; 3_1 μM): -0.0217 and -0.04512 and -0.009501
- Log2 reporter intensity values ([1]; 3_4 μM): -0.06394 and 0.07549 and 0.05768
- Log2 reporter intensity values ([1]; 3 at 1 μM): -0.03075 and -0.0657 and -0.01288
- Log2 reporter intensity values ([1]; 3 at 4 μM): -0.09439 and 0.1058 and 0.08174
- Log2 reporter intensity values: USP47 [2, 7]: 1.001 and 0.9758 and 1.097
- Log2 reporter intensity values: USP47 [2, 8]: 0.9921 and 1.112 and 1.049
- Log2 reporter intensity values ([2]; 3_1 μM): 0.0008917 and -0.02426 and 0.09736
- Log2 reporter intensity values ([2]; 3_4 μM): -0.008057 and 0.1123 and 0.04861
- Log2 reporter intensity values ([2]; 3 at 1 μM): 0.001442 and -0.03527 and 0.1342
- Log2 reporter intensity values ([2]; 3 at 4 μM): -0.01151 and 0.1537 and 0.06863
- Log2 reporter intensity values: UCHL5 ([3]; 3 at 1 μM): 1.151 and 1.125 and 1.14
- Log2 reporter intensity values: UCHL5 ([3]; 3 at 4 μM): 0.8761 and 0.9259 and 0.9496
- Log2 reporter intensity values ([3]; 3_1 μM): 0.1503 and 0.124 and 0.1395
- Log2 reporter intensity values ([3]; 3_4 μM): -0.1246 and -0.07482 and -0.05103
- Log2 reporter intensity values ([3]; 3 at 1 μM): 0.2029 and 0.1696 and 0.1893
- Log2 reporter intensity values ([3]; 3 at 4 μM): -0.1908 and -0.1111 and -0.07454
- Log2 reporter intensity values: USP16 ([4]; 3 at 1 μM): 1.04 and 1.242 and 1.156
- Log2 reporter intensity values: USP16 ([4]; 3 at 4 μM): 1.088 and 0.9104 and 1.039
- Log2 reporter intensity values ([4]; 3_1 μM): 0.03732 and 0.2403 and 0.1536
- Log2 reporter intensity values ([4]; 3_4 μM): 0.08611 and -0.09176 and 0.0368
- Log2 reporter intensity values ([4]; 3 at 1 μM): 0.0559 and 0.3132 and 0.2089
- Log2 reporter intensity values ([4]; 3 at 4 μM): 0.1221 and -0.1354 and 0.05518
Compound: N#CN1CCC[C@@H]1C(=O)N1CCc2c(-c3c[nH]c4ncccc34)cccc21 [Compound 3]

- Log2 reporter intensity values: USP39 ([1]; 20 nM ABP 2 alone): 0.9355 and 0.9539 and 0.9302
- Log2 reporter intensity values: USP47 ([2]; 20 nM ABP 2 alone): 0.9076 and 0.9784 and 0.8828
Compound: C#Cc1cnc2[nH]cc(-c3cccc4c3CCN4C(=O)[C@@H]3CCCN3C#N)c2c1 [Compound 2]
- Log2 reporter intensity values ([1]; 20 nM ABP 2): -0.09621 and -0.06804 and -0.1044 and -0.06512 and -0.04668 and -0.07041
- Log2 reporter intensity values ([2]; 20 nM ABP 2): -0.1398 and -0.03153 and -0.1799 and -0.09247 and -0.02173 and -0.1173
